Assay results: patent US6042841A, “Cosmetic method of treating skin” (Unilever Home & Personal Care USA Division of Conopco, Inc., priority 1998, dated 2000)

What was measured:
ICAM = assay: ICAM-1 assay, PMA-induced ICAM production in human skin fibroblasts; type: cell-based; conditions: PMA (10 nM)-treated; N 4
Description: Intracellular adhesion molecules (ICAM) and PEG2 production by human skin fibroblasts can be induced by the inflammatory stimulus PMA (phorbal myristate acetate). PMA represents an external stressor which induces oxidative stress and inflammatory responses in cells. This model is used to model inflammation in vivo.
Primary human foreskin fibroblasts at passage 2 (P2) were seeded into 96-well plates at 10000 cells/well and maintained for 24 hours in an atmosphere of 5% carbon dioxide in Dulbeccos Modified Eagles Medium (DMEM) supplemented with 10% foetal calf serum. […] Phorbal myristate acetate (PMA) (Sigma) was added to the media and the cells incubated for a further 24 hours. […] The fibroblasts/media were then analysed as described below immediately or snap frozen in liquid nitrogen and stored at -70° C. for future analysis. The cells were then counted and data from the dot-blot analysis subsequently standardised to cell number.
ICAM-1 assay: Media were discarded and cells washed with Dulbecco PBS. To the washed cells, 150 μl 0.1% Triton X-100 (Sigma) was added for 3 minutes to extract ICAM from cell membrane. The extracts were transferred to Eppendoff centrifuge tubes and centrifuged at 1000 g for 2 min to remove cell debris. A volume of 100 μl supernatant was used for ICAM assay. The soluble ICAM-1 was assessed with commercially available immunoenzymometric assay kit (R&D Systems). Concentrations of ICAM-1 in the samples were determined based on parallelly running standard curve.

keratinocytes = assay: Keratinocyte SDS viability assay (Neutral Red); type: cell-based; conditions: Keratinocyte; SDS 2 μg/ml, PA 0; 24 hours; n 8
Description: After incubating for 24 hours the medium was removed and the viability determined by the Neutral Red method.

decorin [1] = assay: Dot blot assay for decorin synthesis in human dermal fibroblasts; type: cell-based; conditions: Homo sapiens, Fibroblast, 24 h; 1 μm (so in the source); p=0.035, n=4; comparative trial; read-out: Decorin synthesis relative to vehicle treated control value of 100
Description: Primary human foreskin fibroblasts at passage 2 (P2) were seeded into 12-well plates at 10000 cells/cm^2 and maintained for 24 hours in an atmosphere of 5% carbon dioxide and 4% oxygen in Dulbeccos Modified Eagles Medium (DMEM) supplemented with 10% foetal calf serum. After this time the cells were washed with serum free DMEM and then incubated in fresh serum free DMEM for a further 60 hours. The fibroblast monolayers were then washed again with serum free DMEM. Test reagents and vehicle controls were added to the cells in triplicate in a final volume of 0.4 ml/well fresh serum free DMEM and incubated for a further 24 hours. This fibroblast conditioned medium was either analysed immediately or snap frozen in liquid nitrogen and stored at -70° C. for future analysis. The cells were then counted and data from the dot-blot analysis subsequently standardised to cell number.
Samples of conditioned medium from dermal fibroblasts treated with vehicle (as a control) or test reagents were supplemented with 20 mM dithiothreitol (1:10 dilution of 200 mM stock solution) and 0.1% sodium dodecylsulphate (1:100 dilution of 10% stock solution), mixed well and then incubated at 75° C. for 2 minutes. A standard for the assay was generated by serial dilution of neat fibroblast conditioned medium from fibroblasts seeded at 10000 cells/cm^2 in a 175 cm^2 flask and maintained in serum free DMEM as described above. Assay samples were subsequently applied in triplicate to a prewetted sheet of Immobilon-P transfer membrane using the 96-well Bio-Dot Apparatus from Bio-Rad as described in the manufacturers guidelines. Approximately 200 μl of medium was applied per well. […] Dot intensity was assessed by computer-assisted image analysis using the quantification tools in ImageQuant™, standardised to cell number and the effects of various test reagents on decorin and procollagen-I synthesis were determined relative to a vehicle treated control value of 100 arbitrary units.

procollagen-I = assay: Immunohistochemical analysis of procollagen-I expression in photodamaged skin biopsies after topical retinoic acid; type: in vivo, human (women); conditions: for No. of Participants showing marked increase in expression of procollagen-I: 0.05% retinoic acid topical
Source text: (§1) Two groups of women were recruited with identical or nearly identical degrees of mild to moderate photodamage on each outer forearm. They were supplied with 0.05% retinoic acid in a moisturising base (Retinova®) and also with a colour matched moisturising cream with similar sensory characteristics (Dermacare® lotion), but no active ingredients, as a placebo control. Each participant of the two groups applied the Retinova® to one outer forearm and placebo (Dermacare®) to the other outer forearm. Group 1 applied the products daily to their outer forearms for 14 weeks and the Group 2 applied the products to their outer forearms for 28 weeks. At the end of the studies two full thickness 4 mm punch biopsies were taken from the treated areas of each forearm. Immunohistochemical analysis of the biopsy tissue taken from the participants was performed to identify the effect of retinoic acid treatment on the expression of the skin extracellular matrix components, decorin and procollagen-I, as compared with the placebo treated forearms. The following procedure was followed:
(§2) Antibody dilution buffer for wax sections was composed of Tris Buffered Saline (TBS), 3% bovine serum albumin (BSA), 0.05% Triton X-100 and 0.05% sodium azide. Primary antibodies for procollagen-I (amino terminal) were obtained from Chemicon International Inc. (cat# MAB 1912, rat IgGl) and used on wax sections at a dilution of 1:800, overnight at 4° C. after the section had been pre-treated with trypsin (0.5 mg/ml, 25 minutes, 37° C.). Primary antibodies for decorin were obtained from Biogenesis (rabbit polyclonal) and used on wax sections at a dilution of 1:800, overnight at 4° C. Anti-rat biotinylated secondary antibodies, obtained from DAKO (cat# E0468, rabbit polyclonal), were applied to wax sections at a dilution of 1:400. Anti-rabbit biotinylated secondary antibodies, obtained from Amersham (cat# RPN 1004, donkey polyclonal), were applied to wax sections at a dilution of 1:400. Streptavidin conjugated alkaline phosphatase, obtained from Zymed (cat# 43-4322), was used at a concentration of 1:2500. […]

decorin [2] = assay: Immunohistochemical analysis of decorin expression in photodamaged skin biopsies after topical retinoic acid; type: in vivo, human (women); conditions: for No. of Participants showing marked increase in expression of decorin: 0.05% retinoic acid topical
Source text: as §1, §2

[3] = Group 1 after 14 weeks, total 16 participants, daily
[4] = Group 2 after 28 weeks, total 15 participants
[5] = topical application of Retinova, vs placebo

CCCCCCCCCCCCCC(=O)O[C@@H]1[C@@H](C)[C@@]2(O)[C@@H](C=C(CO)C[C@]3(O)C(=O)C(C)=C[C@@H]23)[C@@H]2C(C)(C)[C@]12OC(C)=O [PMA, phorbal myristate acetate, reference compound]
ICAM (ICAM): 14.42 ± 1.86 ng/mL

CCCCCCCCCCCCOS(=O)(=O)[O-].[Na+] [SDS, sodium dodecyl sulphate, reference compound]
viability at 2 µg/mL (keratinocytes): 55.8%

CC1=C(/C=C/C(C)=C/C=C/C(C)=C/C(=O)O)C(C)(C)CCC1 [Retinoic Acid, retinoic acid]
activity at 1 µM (decorin [1]): 138 ± 14% | No. of Participants showing marked increase in expression of procollagen-I (procollagen-I; [3]): 9 | No. of Participants showing marked increase in expression of procollagen-I (procollagen-I; [4]): 10 | procollagen-I expression in photodamaged skin (in words) (procollagen-I; [5]): marked upregulation | No. of Participants showing marked increase in expression of decorin (decorin [2]; [3]): 10 | No. of Participants showing marked increase in expression of decorin (decorin [2]; [4]): 15 | decorin expression in photodamaged skin (in words) (decorin [2]; [5]): marked upregulation
